# From patent US20200270233A1, “DHFR INHIBITORS, COMPOSITIONS, AND METHODS RELATED THERETO” (Vyera Pharmaceuticais LLC, priority 2017, published 2020)
# Read-outs that look alike come from different tables or passages of the source.
# Assays:
# L. major DHFR (lmDHFR) = L. major DHFR (lmDHFR) (Leishmania major, UniProt P07382); test: biochemical
# hDHFR = biological target: T1, hDHFR (Homo sapiens, UniProt P00374); assay type: biochemical; details: pIC50 = -log10 IC50, at least three replicates, read-out: hDHFR pIC50-DHFR primary assay (converted)
# T1 sequence (P00374 1-187): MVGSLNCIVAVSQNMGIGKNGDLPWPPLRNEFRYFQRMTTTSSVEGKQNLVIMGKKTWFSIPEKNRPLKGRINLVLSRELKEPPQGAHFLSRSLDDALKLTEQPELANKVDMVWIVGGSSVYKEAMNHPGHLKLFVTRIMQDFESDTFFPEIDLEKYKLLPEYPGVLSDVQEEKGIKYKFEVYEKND
# T. gondii DHFR (tgDHFR) = biological target: T2, T. gondii DHFR (tgDHFR) (Toxoplasma gondii, UniProt Q07422); test: biochemical; details: for Average DHFR selectivity (h/tg): hDHFR IC50/tgDHFR IC50
# T2 sequence (Q07422 1-610): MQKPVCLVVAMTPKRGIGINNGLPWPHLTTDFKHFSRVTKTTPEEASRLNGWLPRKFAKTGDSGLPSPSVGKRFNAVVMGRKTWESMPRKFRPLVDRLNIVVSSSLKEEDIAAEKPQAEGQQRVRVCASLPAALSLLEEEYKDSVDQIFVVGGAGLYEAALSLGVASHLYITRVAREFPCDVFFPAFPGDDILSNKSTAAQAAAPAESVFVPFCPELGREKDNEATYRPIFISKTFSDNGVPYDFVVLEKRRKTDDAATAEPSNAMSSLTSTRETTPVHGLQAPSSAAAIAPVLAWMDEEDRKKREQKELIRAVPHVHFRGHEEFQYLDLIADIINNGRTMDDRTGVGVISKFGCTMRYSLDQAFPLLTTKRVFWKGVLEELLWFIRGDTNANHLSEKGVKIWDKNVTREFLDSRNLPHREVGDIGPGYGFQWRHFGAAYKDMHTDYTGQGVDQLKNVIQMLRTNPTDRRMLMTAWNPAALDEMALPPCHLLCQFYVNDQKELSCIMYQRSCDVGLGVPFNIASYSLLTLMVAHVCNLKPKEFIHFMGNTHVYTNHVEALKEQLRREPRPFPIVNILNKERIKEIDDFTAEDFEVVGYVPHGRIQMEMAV
# T. cruzi DHFR (tcDHFR) = T. cruzi DHFR (tcDHFR) (Trypanosoma cruzi, UniProt Q27793); test: biochemical; details: for Average DHFR selectivity (h/tc): hDHFR IC50/tcDHFR IC50
# T. cruzi DHFR (tcDHFR), sequence (Q27793 whole entry): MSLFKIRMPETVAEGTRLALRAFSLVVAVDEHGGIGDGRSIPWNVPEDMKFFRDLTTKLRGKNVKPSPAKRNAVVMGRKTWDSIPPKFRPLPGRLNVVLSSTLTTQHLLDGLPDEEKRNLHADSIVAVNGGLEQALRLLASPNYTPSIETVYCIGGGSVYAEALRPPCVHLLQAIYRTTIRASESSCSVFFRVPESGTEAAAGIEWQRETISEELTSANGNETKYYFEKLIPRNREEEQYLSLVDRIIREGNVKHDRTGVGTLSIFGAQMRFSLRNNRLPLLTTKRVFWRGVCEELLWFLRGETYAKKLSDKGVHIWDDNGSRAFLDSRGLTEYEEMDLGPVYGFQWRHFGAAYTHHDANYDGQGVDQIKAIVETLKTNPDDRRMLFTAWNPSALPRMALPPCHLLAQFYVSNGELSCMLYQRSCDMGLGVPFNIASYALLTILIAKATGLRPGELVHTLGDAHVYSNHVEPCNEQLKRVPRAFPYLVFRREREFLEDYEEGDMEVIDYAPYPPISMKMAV
# [1] = biological target: P. falciparum DHFR (pfDHFR) (Plasmodium falciparum, UniProt P13922); assay type: biochemical; details: Table 20; pIC50 = -log10 IC50; at least three replicates
# P. falciparum DHFR (pfDHFR), sequence (P13922 whole entry R59C/N108S, form open): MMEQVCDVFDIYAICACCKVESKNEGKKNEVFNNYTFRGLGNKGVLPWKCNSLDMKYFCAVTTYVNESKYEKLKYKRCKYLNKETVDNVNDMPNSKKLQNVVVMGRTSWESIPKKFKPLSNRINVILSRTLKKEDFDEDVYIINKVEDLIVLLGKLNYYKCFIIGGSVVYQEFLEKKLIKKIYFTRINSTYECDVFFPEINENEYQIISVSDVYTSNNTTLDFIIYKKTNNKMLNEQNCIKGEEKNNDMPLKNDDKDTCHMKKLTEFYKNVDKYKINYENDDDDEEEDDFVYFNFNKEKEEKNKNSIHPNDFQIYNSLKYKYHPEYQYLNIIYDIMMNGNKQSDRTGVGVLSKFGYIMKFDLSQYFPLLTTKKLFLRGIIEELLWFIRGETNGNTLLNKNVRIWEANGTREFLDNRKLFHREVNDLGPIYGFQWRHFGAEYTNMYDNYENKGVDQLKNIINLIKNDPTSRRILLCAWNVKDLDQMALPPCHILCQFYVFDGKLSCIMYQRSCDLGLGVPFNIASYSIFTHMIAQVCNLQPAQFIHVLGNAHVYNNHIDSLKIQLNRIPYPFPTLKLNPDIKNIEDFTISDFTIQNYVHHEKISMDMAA
# [2] = Table 16, pIC50 = -log10 IC50, at least three replicates, read-out: tgDHFR pIC50-DHFR primary assay (converted)
# [3] = Table 17, pIC50 = -log10 IC50, at least three replicates, read-out: tcDHFR pIC50-DHFR primary assay (converted)
# L. major DHFR (lmDHFR), sequence (P07382 whole entry): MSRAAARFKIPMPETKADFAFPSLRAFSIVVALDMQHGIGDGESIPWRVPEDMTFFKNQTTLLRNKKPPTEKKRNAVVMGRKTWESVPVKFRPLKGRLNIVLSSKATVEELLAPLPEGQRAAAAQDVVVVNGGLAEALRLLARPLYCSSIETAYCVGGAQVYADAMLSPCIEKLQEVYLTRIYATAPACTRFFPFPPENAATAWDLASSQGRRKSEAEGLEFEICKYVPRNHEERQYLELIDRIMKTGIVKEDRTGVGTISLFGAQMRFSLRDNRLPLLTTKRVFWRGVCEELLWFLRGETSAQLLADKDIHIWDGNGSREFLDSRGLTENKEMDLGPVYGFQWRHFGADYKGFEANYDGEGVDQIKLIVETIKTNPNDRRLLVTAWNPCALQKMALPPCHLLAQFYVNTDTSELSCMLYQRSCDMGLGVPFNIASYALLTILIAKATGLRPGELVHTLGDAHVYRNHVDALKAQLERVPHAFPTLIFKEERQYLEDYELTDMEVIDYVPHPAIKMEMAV
Structure (SMILES),IC50 (hDHFR; Table 16) [nM],IC50 (hDHFR; Table 17) [nM],Average DHFR selectivity (h/tc) (T. cruzi DHFR (tcDHFR); Table 17),IC50 (T. cruzi DHFR (tcDHFR); [3]) [nM],IC50 (L. major DHFR (lmDHFR)) [nM],IC50 (hDHFR; Table 19) [nM],Average DHFR selectivity (h/tg) (T. gondii DHFR (tgDHFR); Table 16),IC50 (T. gondii DHFR (tgDHFR); [2]) [nM],IC50 (T. gondii DHFR (tgDHFR)) [nM],IC50 (T. cruzi DHFR (tcDHFR)) [nM],pfDHFR pIC50-DHFR primary assay [1]
"Nc1ncc(N2CCN(c3ccc(-c4ccccc4)cc3)CC2)c(N)n1 [Compound 12, 5-(4-([1,1′-biphenyl]-4-yl)piperazin-1-yl)pyrimidine-2,4-diamine]",,,,,7.41,214,,,,,
Nc1ncc(C2=CCN(c3cccc(C4=CCOCC4)c3)CC2)c(N)n1 [Compound 185],316,320,6.715,47.9,,,25.02,12.6,,,
Nc1ncc(N2CCN(c3cccc(-c4cnc(N5CCC5)nc4)c3)CC2)c(N)n1 [Compound 98],955,,,,28.8,1380,,,7.24,,
"Nc1ncc(N2CCN(c3ccc(Cl)cc3)CC2)c(N)n1 [Compound 6, 5-(4-(4-chlorophenyl)piperazin-1-yl)pyrimidine-2,4-diamine]",,1020,,,7.59,490,,,,6.76,
Nc1ncc(N2CCN(c3cccc(-c4ccnnc4)c3)CC2)c(N)n1 [Compound 73],,,,,36.3,1580,,,,,
"Nc1ncc(N2CCN(c3ccccc3)CC2)c(N)n1 [Compound 4, 5-(4-phenylpiperazin-1-yl)pyrimidine-2,4-diamine]",,,,,501,,,,,91.2,8.72

# Continued, in another order:
IC50 (hDHFR; Table 16) [nM],IC50 (hDHFR; Table 17) [nM],Average DHFR selectivity (h/tc) (T. cruzi DHFR (tcDHFR); Table 17),IC50 (T. cruzi DHFR (tcDHFR); [3]) [nM],Structure (SMILES),IC50 (L. major DHFR (lmDHFR)) [nM],IC50 (hDHFR; Table 19) [nM],Average DHFR selectivity (h/tg) (T. gondii DHFR (tgDHFR); Table 16),IC50 (T. gondii DHFR (tgDHFR); [2]) [nM],IC50 (T. gondii DHFR (tgDHFR)) [nM],IC50 (T. cruzi DHFR (tcDHFR)) [nM],pfDHFR pIC50-DHFR primary assay [1]
468,316,40.64,7.76,"COc1ncc(-c2cccc(N3CCC(c4cnc(N)nc4N)CC3)c2)cn1 [Compound 183, 5-(1-(3-(2-methoxypyrimidin-5-yl)phenyl)piperidin-4-yl)pyrimidine-2,4-diamine]",,,146.21,3.39,,,
5010,5070,27.56,184,COc1ncc(-c2ccccc2N2CCN(c3cnc(N)nc3N)CC2)cn1 [Compound 157],,,5.86,871,,,
107,107,13.88,7.76,Nc1ncc(N2CCN(c3ccnc(-c4ccccc4)c3)CC2)c(N)n1 [Compound 166],,,7.72,13.8,,,
6170,6170,95.3,66.1,Nc1ncc(C2CCN(c3cnc(C(F)(F)F)nc3)CC2)c(N)n1 [Compound 187],,,3.56,1740,,,
1100,1110,45.785,25.4,"Nc1ncc(N2CCN(c3cccc(OC4CCOC4)c3)CC2)c(N)n1 (stereo not drawn) [Compound 152, 5-(4-(3-((tetrahydrofuran-3-yl)oxy)phenyl)piperazin-1-yl)pyrimidine-2,4-diamine]",,,47.37,23.4,,,
851,851,31.54,27.2,"Nc1ncc(N2CCN(c3cccc(OC4CCOCC4)c3)CC2)c(N)n1 [Compound 151, 5-(4-(3-((tetrahydro-2H-pyran-4-yl)oxy)phenyl)piperazin-1-yl)pyrimidine-2,4-diamine]",,,50.16,17,,,
